ChEMBL document CHEMBL1148088, “Vibrindole A, a metabolite of the marine bacterium, Vibrio parahaemolyticus, isolated from the toxic mucus of the boxfish Ostracion cubicus” (1994)

Experiments:
Staphylococcus aureus = assay: Antimicrobial activity against Staphylococcus aureus Sau1091-5 at 100 ug/disk; type: functional; conditions: read-out: IZ
Staphylococcus [1] = assay: Antimicrobial activity against Staphylococcus albus Sal1091-4 at 100 ug/disk; type: functional; conditions: read-out: IZ
Bacillus subtilis = assay: Antimicrobial activity against Bacillus subtilis Bs1091-1 at 100 ug/disk; type: functional; conditions: read-out: IZ
Staphylococcus [2] = assay: Antimicrobial activity against Staphylococcus albus Sal1091-4 at […]; type: functional, organism-based

Compound | zone of inhibition at 100 µg/disc (Staphylococcus aureus) [mm] | zone of inhibition at 100 µg/disc (Staphylococcus [1]) [mm] | zone of inhibition at 100 µg/disc (Bacillus subtilis) [mm] | inhibition zone (IZ) (Staphylococcus [2]) [mm]
O=C1c2ccccc2NC1(c1c[nH]c2ccccc12)c1c[nH]c2ccccc12 | 11 | – | – | –
CC(c1c[nH]c2ccccc12)c1c[nH]c2ccccc12 [VIBRINDOLE A] | 11 | 11 | 7 | –
GENTAMICIN | – | – | – | 14
